Experimental data from PubChem BioAssay (NCI).
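The compound was tested at five concentrations on cells cultured in 96-well plates, with a 48-hour exposure period. Here, GI50 denotes the concentration required for 50% inhibition of growth. TGI is the concentration that stops growth completely.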

Experiments:
Experiment in all cases: growth of human tumour cells (NCI), 48 h
[1] = test system: 786-0 renal
[2] = test system: A498 renal
[3] = test system: A549 NSCLC
[4] = test system: ACHN renal
[5] = test system: CAKI-1 renal
[6] = test system: CCRF-CEM leukemia
[7] = test system: COLO 205 colon
[8] = test system: DU-145 prostate
[9] = test system: EKVX NSCLC
[10] = test system: HCC-2998 colon
[11] = test system: HCT-15 colon
[12] = test system: HL-60(TB) leukemia
[13] = test system: HOP-62 NSCLC
[14] = test system: HOP-92 NSCLC
[15] = test system: HS 578T breast
[16] = test system: HT29 colon
[17] = test system: IGROV1 ovarian
[18] = test system: K-562 leukemia
[19] = test system: KM12 colon
[20] = test system: LOX IMVI melanoma
[21] = test system: M14 melanoma
[22] = test system: MALME-3M melanoma
[23] = test system: MCF7 breast
[24] = test system: MDA-MB-231 breast
[25] = test system: MDA-MB-435
[26] = test system: MDA-N
[27] = test system: MOLT-4 leukemia
[28] = test system: NCI-H226 lung
[29] = test system: NCI-H23 lung
[30] = test system: NCI-H460 lung
[31] = test system: NCI-H522 lung
[32] = test system: NCI/ADR-RES ovarian
[33] = test system: OVCAR-3 ovarian
[34] = test system: OVCAR-4 ovarian
[35] = test system: OVCAR-5 ovarian
[36] = test system: OVCAR-8 ovarian
[37] = test system: PC-3 prostate
[38] = test system: RPMI-8226 leukemia
[39] = test system: RXF 393 renal
[40] = test system: SF-268 CNS
[41] = test system: SF-295 CNS
[42] = test system: SK-MEL-2 melanoma
[43] = test system: SK-MEL-28 melanoma
[44] = test system: SK-MEL-5 melanoma
[45] = test system: SK-OV-3 ovarian
[46] = test system: SNB-19 CNS
[47] = test system: SNB-75 CNS
[48] = test system: SR leukemia
[49] = test system: SW-620 colon
[50] = test system: T-47D breast
[51] = test system: TK-10 renal
[52] = test system: U251 CNS
[53] = test system: UACC-257 melanoma
[54] = test system: UACC-62 melanoma
[55] = test system: UO-31 renal
[56] = test system: BT-549 breast
[57] = test system: HCT-116 colon
[58] = test system: SF-539 CNS
[59] = test system: SN12C renal

O=S(c1ccccc1)C1CC2CC3(CCC21O)OCCO3 (stereo unspecified)
TGI [1]: > 100000 nM | TGI [2]: > 100000 nM | TGI [3]: > 100000 nM | TGI [4]: > 100000 nM | TGI [5]: > 100000 nM | TGI [6]: > 100000 nM | TGI [7]: > 100000 nM | TGI [8]: > 100000 nM | TGI [9]: > 100000 nM | TGI [10]: > 100000 nM | TGI [11]: > 100000 nM | TGI [12]: > 100000 nM | TGI [13]: > 100000 nM | TGI [14]: > 100000 nM | TGI [15]: > 100000 nM | TGI [16]: > 100000 nM | TGI [17]: > 100000 nM | TGI [18]: > 100000 nM | TGI [19]: > 100000 nM | TGI [20]: > 100000 nM | TGI [21]: > 100000 nM | TGI [22]: > 100000 nM | TGI [23]: > 100000 nM | TGI [24]: > 100000 nM | TGI [25]: > 100000 nM | TGI [26]: > 100000 nM | TGI [27]: > 100000 nM | TGI [28]: > 100000 nM | TGI [29]: > 100000 nM | TGI [30]: > 100000 nM | TGI [31]: > 100000 nM | TGI [32]: > 100000 nM | TGI [33]: > 100000 nM | TGI [34]: > 100000 nM | TGI [35]: > 100000 nM | TGI [36]: > 100000 nM | TGI [37]: > 100000 nM | TGI [38]: > 100000 nM | TGI [39]: > 100000 nM | TGI [40]: > 100000 nM | TGI [41]: > 100000 nM | TGI [42]: > 100000 nM | TGI [43]: > 100000 nM | TGI [44]: > 100000 nM | TGI [45]: > 100000 nM | TGI [46]: > 100000 nM | TGI [47]: > 100000 nM | TGI [48]: > 100000 nM | TGI [49]: > 100000 nM | TGI [50]: > 100000 nM | TGI [51]: > 100000 nM | TGI [52]: > 100000 nM | TGI [53]: > 100000 nM | TGI [54]: > 100000 nM | TGI [55]: > 100000 nM

C=C(C)[C@@H]1CC[C@]2(COCCCNCCCN)CC[C@]3(C)[C@H](CC[C@@H]4[C@@]5(C)CC[C@H](OCCCN)C(C)(C)[C@@H]5CC[C@]43C)[C@@H]12
GI50 [1]: 825 nM | TGI [1]: 1500 nM | GI50 [2]: 7220 nM | TGI [2]: 14400 nM | GI50 [3]: 909 nM | TGI [3]: 1710 nM | GI50 [4]: 996 nM | TGI [4]: 1950 nM | GI50 [56]: 6860 nM | TGI [56]: 14200 nM | GI50 [5]: 982 nM | TGI [5]: 2300 nM | GI50 [6]: 822 nM | TGI [6]: 1970 nM | GI50 [7]: 778 nM | TGI [7]: 1560 nM | GI50 [8]: 895 nM | TGI [8]: 1620 nM | GI50 [9]: 812 nM | TGI [9]: 1610 nM | GI50 [10]: 960 nM | TGI [10]: 1810 nM | GI50 [57]: 898 nM | TGI [57]: 1670 nM | GI50 [11]: 860 nM | TGI [11]: 1590 nM | GI50 [12]: 2120 nM | TGI [12]: 8330 nM | GI50 [13]: 831 nM | TGI [13]: 1620 nM | GI50 [14]: 2100 nM | TGI [14]: 9760 nM | GI50 [15]: 997 nM | TGI [15]: 2150 nM | GI50 [16]: 813 nM | TGI [16]: 1530 nM | GI50 [17]: 930 nM | TGI [17]: 1720 nM | GI50 [18]: 879 nM | TGI [18]: 1820 nM | GI50 [19]: 928 nM | TGI [19]: 1730 nM | GI50 [20]: 846 nM | TGI [20]: 1570 nM | GI50 [21]: 866 nM | TGI [21]: 1650 nM | GI50 [22]: 801 nM | TGI [22]: 1530 nM | GI50 [23]: 879 nM | TGI [23]: 1700 nM | GI50 [24]: 863 nM | TGI [24]: 1670 nM | GI50 [25]: 833 nM | TGI [25]: 1530 nM | GI50 [27]: 1050 nM | TGI [27]: 2580 nM | GI50 [28]: 1040 nM | TGI [28]: 2340 nM | GI50 [29]: 934 nM | TGI [29]: 1790 nM | GI50 [30]: 940 nM | TGI [30]: 1750 nM | GI50 [31]: 868 nM | TGI [31]: 1720 nM | GI50 [32]: 936 nM | TGI [32]: 1870 nM | GI50 [33]: 942 nM | TGI [33]: 1720 nM | GI50 [34]: 934 nM | TGI [34]: 1780 nM | GI50 [35]: 918 nM | TGI [35]: 1670 nM | GI50 [36]: 903 nM | TGI [36]: 1720 nM | GI50 [37]: 874 nM | TGI [37]: 1720 nM | GI50 [38]: 1070 nM | TGI [38]: 2560 nM | GI50 [39]: 825 nM | TGI [39]: 1610 nM | GI50 [40]: 6770 nM | TGI [40]: 15100 nM | GI50 [41]: 868 nM | TGI [41]: 1590 nM | GI50 [58]: 891 nM | TGI [58]: 1590 nM | GI50 [42]: 6860 nM | TGI [42]: 13800 nM | GI50 [43]: 876 nM | TGI [43]: 1600 nM | GI50 [44]: 1720 nM | TGI [44]: 5810 nM | GI50 [45]: 1390 nM | TGI [45]: 4280 nM | GI50 [59]: 867 nM | TGI [59]: 1620 nM | GI50 [46]: 913 nM | TGI [46]: 1660 nM | GI50 [47]: 778 nM | TGI [47]: 1570 nM | GI50 [48]: 577 nM | TGI [48]: 1940 nM | GI50 [49]: 871 nM | TGI [49]: 1670 nM | GI50 [50]: 858 nM | TGI [50]: 1710 nM | GI50 [51]: 952 nM | TGI [51]: 1940 nM | GI50 [52]: 836 nM | TGI [52]: 1540 nM | GI50 [53]: 914 nM | TGI [53]: 1750 nM | GI50 [54]: 914 nM | TGI [54]: 1670 nM | GI50 [55]: 765 nM | TGI [55]: 1500 nM
